Experimental data reported in the supplement of paper PMC10307832.

Tests used:
Experiment in all cases: relative viability (nuclei count vs DMSO), 5 days (fraction); higher = more cells survive
[1] = compound: Cc1ccc(C(=O)N(CCCN)[C@@H](c2nc3cc(Cl)ccc3c(=O)n2Cc2ccccc2)C(C)C)cc1 [Ispinesib] + O=C(CCCCCCC(=O)Nc1ccccc1)NO [Vorinostat] (partner 1 µM)
Outline: (§1)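 After 5 days of treatment, lung cancer cells in 1536-well plates were fixed and stained in a single step (final 0.05% Triton X-100, 1% formaldehyde, 1 ug/ml Hoechst) and their nuclei counted on 4× images. Treatment had been applied by pin tool the day after seeding as one drug alone or as a fixed anchor-drug dose with five library-drug doses (not always all listed) in √10 steps. Relative viability is the nuclei count of treated wells divided by that of vehicle wells, and values are medians of duplicate plates.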

[2] = compound: Cc1ccc(C(=O)N(CCCN)[C@@H](c2nc3cc(Cl)ccc3c(=O)n2Cc2ccccc2)C(C)C)cc1 [Ispinesib] + C[C@@H](Oc1cc(-c2cnn(C3CCNCC3)c2)cnc1N)c1c(Cl)ccc(F)c1Cl [Crizotinib] (partner 1 µM)
Outline: as §1

[3] = compound: C[C@]1(O)C[C@@H](c2nc(-c3ccc4ccc(-c5ccccc5)nc4c3)c3c(N)nccn32)C1 [Linsitinib] + Cc1nc(NC(=O)N2CCC[C@H]2C(N)=O)sc1-c1ccnc(C(C)(C)C(F)(F)F)c1 [Alpelisib] (partner 2 µM)
Outline: as §1

[4] = compound: C[C@]1(O)C[C@@H](c2nc(-c3ccc4ccc(-c5ccccc5)nc4c3)c3c(N)nccn32)C1 [Linsitinib] + N=C(N)NC(=N)NCCc1ccccc1 [Phenformin] (partner 250 µM)
Outline: as §1

Cell Line	relative viability ([1]; first compound 0.001 µM)	relative viability ([1]; first compound 0.003162 µM)	relative viability ([1]; first compound 0.01 µM)	relative viability ([1]; first compound 0.03162 µM)	relative viability ([1]; first compound 0.1 µM)	relative viability ([2]; first compound 0.001 µM)	relative viability ([2]; first compound 0.003162 µM)	relative viability ([2]; first compound 0.01 µM)	relative viability ([2]; first compound 0.03162 µM)	relative viability ([2]; first compound 0.1 µM)	relative viability ([3]; first compound 0.01 µM)	relative viability ([3]; first compound 0.03162 µM)	relative viability ([3]; first compound 0.1 µM)	relative viability ([3]; first compound 0.3162 µM)	relative viability ([3]; first compound 1 µM)	relative viability ([4]; first compound 0.01 µM)	relative viability ([4]; first compound 0.03162 µM)	relative viability ([4]; first compound 0.1 µM)	relative viability ([4]; first compound 0.3162 µM)	relative viability ([4]; first compound 1 µM)
NCI-H1666	1.11	1.05	1.08	1.07	0.84	0.952	1.12	0.948	0.794	0.293	0.847	0.869	0.769	0.452	0.477	0.539	0.394	0.534	0.314	0.511
NCI-H1734	0.854	0.904	0.91	0.552	0.262	0.662	0.77	0.893	0.648	0.483	0.688	0.744	0.65	0.692	0.612	0.449	0.392	0.367	0.363	0.315
NCI-H1755	0.726	0.789	0.937	0.636	0.419	0.881	0.622	0.945	0.864	0.461	0.938	0.875	0.961	0.78	0.896	0.66	0.64	0.629	0.372	0.503
NCI-H1915	0.532	0.539	0.525	0.238	0.101	0.972	0.675	0.926	0.842	0.432	1.08	1.15	1.14	0.913	0.878	0.371	0.389	0.247	0.339	0.373
NCI-H1944	0.671	0.496	0.575	0.345	0.152	1.2	1.16	1.18	0.697	0.573	0.753	0.962	0.865	0.918	0.801	0.217	0.259	0.192	0.165	0.159
NCI-H1975	0.738	0.766	0.798	0.586	0.279	1.09	1.02	1.08	0.491	0.205	0.608	0.62	0.647	0.543	0.453	0.396	0.417	0.413	0.38	0.396
NCI-H1993	0.984	0.738	0.74	0.515	0.438	0.837	0.914	0.874	0.891	0.661	0.723	0.568	0.701	0.75	0.64	0.523	0.465	0.572	0.526	0.526
NCI-H2009	0.859	0.732	0.746	0.72	0.213	1.04	1.01	0.999	0.589	0.288	1.17	1.17	1.2	1.03	1.13	0.479	0.47	0.434	–	0.367
NCI-H2023	0.646	0.563	0.43	0.237	0.162	0.616	0.657	0.598	0.457	0.13	0.533	0.426	0.502	0.425	0.392	0.382	0.349	0.464	0.296	0.297
NCI-H2085	0.773	0.762	0.864	0.594	0.429	0.931	0.973	0.701	0.777	0.56	0.886	1.12	1.06	0.888	0.922	0.763	0.723	0.727	0.663	0.574
NCI-H2087	0.963	0.45	0.937	0.995	0.141	0.839	1	0.995	0.61	0.146	1.06	1.2	1.02	0.853	0.815	0.498	0.54	0.417	0.222	0.365
NCI-H2126	0.754	0.867	0.932	0.789	0.289	1.03	1.05	1.09	1.07	0.923	0.726	0.801	0.743	0.682	0.717	0.531	0.512	0.484	0.338	0.319
NCI-H2170	0.923	0.77	0.969	0.502	0.199	1.34	1.31	1.33	0.693	0.411	0.865	0.777	0.698	0.745	0.68	0.432	0.379	0.364	0.24	0.348
NCI-H2228	0.742	0.786	0.722	0.341	0.242	0.511	0.4	0.539	0.374	0.207	0.594	0.746	0.723	0.493	0.586	0.307	0.397	0.325	0.273	0.278
NCI-H2347	0.562	0.617	0.738	0.625	0.471	0.714	0.833	0.717	0.544	0.402	1.01	1.21	1.01	0.595	0.902	0.391	0.534	0.385	–	0.467
NCI-H2405	1.07	1.19	1.23	0.622	0.519	0.846	0.859	0.919	0.835	0.406	0.86	0.625	1.04	0.632	0.698	0.406	0.446	0.384	0.377	0.292
